According to patent US8883410B2, “Method for determining the stability of organic methyleneamines in the presence of semicarbazide-sensitive amine oxidase” (Sanofi, priority 2007, dated 2014):

Biological target: T1, human SSAO T1 (Gly27-Asn763), C-terminal 6xHIS tag (Homo sapiens, UniProt Q16853)
T1 construct: T1 (Gly27-Asn763) Representing the Enzyme Lacking the Membrane Anchoring Region; additional N-terminal Met (N); expressed in transfected cells; cell lysate
T1 sequence (Q16853 27-763): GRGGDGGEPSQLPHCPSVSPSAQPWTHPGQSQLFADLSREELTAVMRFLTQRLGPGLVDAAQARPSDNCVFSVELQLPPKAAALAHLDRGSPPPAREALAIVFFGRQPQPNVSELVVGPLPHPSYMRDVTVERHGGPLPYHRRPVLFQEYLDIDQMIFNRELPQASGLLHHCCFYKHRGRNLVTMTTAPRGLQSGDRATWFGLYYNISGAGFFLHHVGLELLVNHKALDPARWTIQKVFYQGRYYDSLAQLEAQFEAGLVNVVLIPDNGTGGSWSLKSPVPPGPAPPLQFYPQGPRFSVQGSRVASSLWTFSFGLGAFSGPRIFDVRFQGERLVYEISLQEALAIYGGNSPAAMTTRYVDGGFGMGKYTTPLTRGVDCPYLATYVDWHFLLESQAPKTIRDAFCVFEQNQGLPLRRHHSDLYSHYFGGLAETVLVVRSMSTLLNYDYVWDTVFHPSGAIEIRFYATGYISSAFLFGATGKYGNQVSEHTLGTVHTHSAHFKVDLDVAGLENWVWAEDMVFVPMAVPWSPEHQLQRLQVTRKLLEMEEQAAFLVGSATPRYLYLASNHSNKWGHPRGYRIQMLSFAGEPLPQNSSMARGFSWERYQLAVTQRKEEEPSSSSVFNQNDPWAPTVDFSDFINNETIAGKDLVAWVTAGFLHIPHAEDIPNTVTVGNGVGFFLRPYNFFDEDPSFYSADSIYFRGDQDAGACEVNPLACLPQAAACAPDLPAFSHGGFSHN
Assay: Benzylamine stability in lysate of cells expressing T1 SSAO with C-terminal 6xHIS tag, LC/MS/MS
Format: in vitro ADME
Protocol: 3) T1 (Gly27-Asn763) Representing the Enzyme Lacking the Membrane Anchoring Region:
The expression constructs were prepared by cloning these PCR products into the pCDNA5-FRT-To-DEST vector (Invitrogen, Gateway System™). The forward and reverse DNA sequence of each construct was confirmed including expressed sequences and at least 100 base pairs either side of this. Stable cell lines for Flp-In CHO, Flp-In CHO T-Rex, and Flp-In HEK 293 (Invitrogen, Flp-In system™) were generated using these 6 constructs according to manufacturer's instructions. Cells were co-transfected with the regulatory vector, pOG44, and each of the pCDNA5-FRT-To-DEST constructs using Lipfectamine (Invitrogen) according to manufacturer's instructions. Thus, 18 cell lines were generated: CHO Flp-In full-length SSAO; CHO Flp-In full-length SSAO with C-terminal 6×HIS tag; CHO Flp-In T1 SSAO; CHO Flp-In T1 SSAO with C-terminal 6×HIS tag; CHO Flp-In T2 SSAO; CHO Flp-In T2 SSAO with C-terminal 6×HIS tag; CHO T-Rex Flp-In full-length SSAO; CHO T-Rex Flp-In full-length SSAO with C-terminal 6×HIS tag; CHO T-Rex Flp-In T1 SSAO; CHO T-Rex Flp-In T1 SSAO with C-terminal 6×HIS tag; CHO T-Rex Flp-In T2 SSAO; CHO Flp-In T2 SSAO with C-terminal 6×HIS tag; HEK 293 Flp-In full-length SSAO; HEK 293 Flp-In full-length SSAO with C-terminal 6×HIS tag; HEK 293 Flp-In T1 SSAO; HEK 293 Flp-In T1 SSAO with C-terminal 6×HIS tag; HEK 293 Flp-In T2 SSAO; HEK 293 Flp-In T2 SSAO with C-terminal 6×HIS tag.
Adherent CHO cells were cultured at 37° C., 5% CO2 in media containing Ham's F12, 10% fetal bovine serum, 2 mM L-glutamine, 1% Penicillin/Streptomycin, 300 μM hygromycin B. Adherent HEK 293 cells were cultured at 37° C., 5% CO2 in D-MEM (high glucose), 10% fetal bovine serum, 2 mM L-glutamine, and 200 μM hygromycin B. Stable transformants were identified by loss of zeocin resistance. Once the cells were 80% confluent, SSAO expression was induced by the addition of Tetracycline to 1 μg/mL. Following 18 hours, the cells were harvested using a trypsin treatment of 3 minutes, at room temperature. Cells were washed 3 times in phosphate buffered saline before flash freezing in liquid nitrogen.
For the preparation of cell lysate for activity testing, frozen cell pellets were resuspended in lysate buffer containing 10 mM Tris-HCl (pH 7.2), 150 mM NaCl, 1.5 mM MgCl2, 1% v/v NP-40 and incubated for 15 minutes on ice. Lysate was cleared by centrifugation 800×g for 10 minutes, 4° C. and stored in aliquots at −80° C. until use. Proteins were determined using Pierce Coomassie Protein Reagent, according to manufacturer's instructions.
For each assay run, 1 mL of cell lysate (1.5 mg/mL protein) was mixed with benzylamine to 2000 ng/mL final concentration. At each corresponding time point, […] the incubation mixture was transferred to a microcentrifuge tube (1.7 mL) and mixed with 50 μL of acetonitrile. The tubes were vortex mixed briefly to ensure complete mixing and then centrifuged at 10,000×g for 5 minutes. The supernatant was removed and 50 μL was transferred to an autosampler vial and mixed with 50 μL of water before LC/MS/MS analysis. Benzylamine remaining in the lysate was analyzed with LC/MS/MS method.
LC/MS/MS analysis was performed with a PE Sciex API 3000 mass spectrometer under the following conditions listed below and in Tables 1 and 2: […]

Compound: NCc1ccccc1 [Benzylamine]
- Benzylamine Remaining (%) (CHO Flp-In T-Rex lysate, 0 min): 100%
- Benzylamine Remaining (%) (CHO Flp-In T-Rex lysate, 10 min): 95%
- Benzylamine Remaining (%) (CHO Flp-In T-Rex lysate, 2 h): 93%
- Benzylamine Remaining (%) (CHO Flp-In lysate, 0 min): 100%
- Benzylamine Remaining (%) (CHO Flp-In lysate, 10 min): 101%
- Benzylamine Remaining (%) (CHO Flp-In lysate, 2 h): 98%
- Benzylamine Remaining (%) (HEK293 lysate, 0 min): 100%
- Benzylamine Remaining (%) (HEK293 lysate, 10 min): 111%
- Benzylamine Remaining (%) (HEK293 lysate, 2 h): 103%
